# Several values for one entry are separate records, joined by “and”; a condition that tells them apart may be missing. Equal values may be shown once. Activity calls are given as the source filed them. How the calls were made is not given here.
# Biological target: Peptidyl-prolyl cis-trans isomerase FKBP1A (Homo sapiens) (UniProt P62942)
# Assay: FKBP12 binders, biophysical, NMR detection (AID 608)
# Details: NMR binding, purified FKBP12
# Peptidyl-prolyl cis-trans isomerase FKBP1A (Homo sapiens), sequence (P62942 whole entry, looked up): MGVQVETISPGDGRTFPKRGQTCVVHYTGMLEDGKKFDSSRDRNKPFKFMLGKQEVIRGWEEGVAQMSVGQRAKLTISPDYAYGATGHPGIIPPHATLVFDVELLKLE
row,SMILES,Kd
1,CC(=O)O[C@@H]1C=C[C@@]2(C)C(C[C@@H](OC(C)=O)[C@@]3(C)C4=CC(=O)O[C@@H](c5ccoc5)[C@]4(C)CCC23)C1(C)C (some centres undefined),> 4 mM (inactive)
2,COc1ccc(O)c(-c2cn[nH]c2-c2cccs2)c1,> 4 mM (inactive)
3,O=CN1CCN(C(=O)c2ccco2)CC1,> 4 mM (inactive)
4,Nc1cccc(F)c1-c1ncon1,> 4 mM (inactive)
5,c1cncc(C(N2CCOCC2)N2CCOCC2)c1,> 4 mM (inactive)
6,O=C1OC(N2CCOCC2)c2ccccc21 (centres undefined),> 4 mM (inactive)
7,CSc1nnc2c(n1)OC=Nc1ccccc1-2,> 4 mM (inactive)
8,Cn1nnc2c(Cl)ncnc21,> 4 mM (inactive)
9,COc1ccc2c(=O)c(CC(=O)O)coc2c1,> 4 mM (inactive)
10,C=CC1=C(C)/C(=C/c2[nH]c(Cc3[nH]c(/C=C4\NC(=O)C(C)=C4C=C)c(C)c3CCC(=O)O)c(CCC(=O)O)c2C)NC1=O,> 4 mM (inactive)
11,O=c1/c(=C\c2cccnc2)sc2nc3ccccc3n12,> 4 mM (inactive)
12,CC(=O)c1c(C)nc(C)nc1NC(=O)C(C)C,> 4 mM (inactive)
13,Cc1noc(C)c1C(=O)N1CCC(Cc2ccccc2)CC1,> 4 mM (inactive)
14,O=C(c1cccc(C(F)(F)F)c1)N1CCCC1,> 4 mM (inactive)
15,COc1c(O)cc(O)cc1O,> 4 mM (inactive)
16,O=C(O)C1Cc2c([nH]c3ccccc23)CN1 (centres undefined),> 4 mM (inactive)
17,CN(C)c1ccc(NC(=O)CC(C(=O)O)N(C)C)cc1 (centres undefined),> 4 mM (inactive)
18,Cc1sc2nc(-c3ccco3)oc(=O)c2c1C,> 4 mM (inactive)
19,COc1ccc(C)cc1S(=O)(=O)Nc1ccccc1C,> 4 mM (inactive)
20,Nc1nncn1C(=O)c1c(Cl)cccc1Cl,> 4 mM (inactive)
21,O=C1NC(=O)/C(=C\c2ccco2)S1,> 4 mM (inactive)
22,O=C(O)c1ccc(-n2cncn2)cc1,> 4 mM (inactive)
23,CS(=O)(=O)c1cccc(C(=O)Nc2nccs2)c1,> 4 mM (inactive)
24,COC(=O)c1ccc(N2CCCC2)nc1,> 4 mM (inactive)
25,Cc1c(-c2ccccc2)[n+](=O)c(-c2ccco2)c(C)n1[O-],> 4 mM (inactive)
26,O=C1NC(=S)N/C1=C\c1cccnc1,> 4 mM (inactive)
27,Nc1c(/C=C2\C=Nc3ccccc32)c(=O)nc2scnn12,> 4 mM (inactive)

row,SMILES,Kd
1,COC(=O)Nc1nc2c(C)cccc2s1,> 4 mM (inactive)
2,Cc1cc(NC(=O)Cc2c(F)cccc2Cl)no1,> 4 mM (inactive)
3,O=C1CCC(=O)N1c1cccc([N+](=O)[O-])c1,> 4 mM (inactive)
4,Cc1ccc(C(=O)Nn2cnnc2)c(Cl)c1,> 4 mM (inactive)
5,C[C@@H]1CC[C@H]2[C@@H](C)C(=O)O[C@@H]3OC4(C)CC[C@@H]1[C@]32OO4,> 4 mM (inactive)
6,Cn1c(=O)c2[nH]cnc2n(-c2ccccc2)c1=O,> 4 mM (inactive)
7,CCCNC(=O)CSc1ncccc1C(=O)O,> 4 mM (inactive)
8,COc1ccc(C2CC(=O)NN2)cc1OC1CCCC1 (centres undefined),> 4 mM (inactive)
9,O=C(CC1NCCNC1=O)Nc1ccccc1 (centres undefined),> 4 mM (inactive)
10,c1ccc2[nH]c(-c3cscn3)nc2c1,0.111 mM and 0.056 mM
11,Cc1cc(N)cc(C)c1OCC(=O)N1CCOCC1,> 4 mM (inactive)
12,CC(C)Nc1ncnc2c1nnn2C,> 4 mM (inactive)
13,CN1C(=O)Cc2cc(S(N)(=O)=O)ccc21,> 4 mM (inactive)
14,CS(=O)(=O)c1ccccc1C(=O)Nc1nccs1,> 4 mM (inactive)
15,Cc1cc2ncc(C(=O)Nc3ccccc3)c(C)n2n1,inactive
16,Cc1c(C(=O)Nc2ccncc2)oc2c1C(=O)CC(C)(C)C2,> 4 mM (inactive)
17,NC(=O)c1cccc(Cl)n1,> 4 mM (inactive)
18,CC(C)C(=O)NCC(c1ccco1)N1CCOCC1 (centres undefined),> 4 mM (inactive)
19,CCc1sc(C(=O)NC)cc1Br,> 4 mM (inactive)
20,CN(C(=O)c1cc2cccnc2n(C)c1=O)c1ccccc1,> 4 mM (inactive)
21,CC1(C)C2CC(=O)[C@]3(C)C(CC[C@@]4(C)[C@H](c5ccoc5)OC(=O)[C@H]5O[C@]543)[C@@]2(C)C(=O)C[C@H]1O (some centres undefined),> 4 mM (inactive)
22,Cc1cc(OC(=O)c2ccco2)c([N+](=O)[O-])c(=O)[nH]1,> 4 mM (inactive)
23,Cc1c(F)cccc1NS(=O)(=O)c1ccccc1C#N,> 4 mM (inactive)
24,NC(=O)Cn1nc(-c2ccco2)ccc1=O,> 4 mM (inactive)
25,Cc1cc(OCC(=O)N2CCOCC2)ccc1NC(=O)OCc1ccccc1,> 4 mM (inactive)
26,NCCc1cnc[nH]1,> 4 mM (inactive)
27,COc1ccc(/C=C2\SC(N)=NC2=O)cc1,> 4 mM (inactive)
